The assay concerns the target T1, Human autotaxin enzyme (Homo sapiens, UniProt Q13822).
T1 construct: purchased R&D System
The experiment in a line: Evaluation of autotaxin inhibitor, Method C (Test Example 3): 18:0 Lyso PC, choline assay, Resorufin fluorescence. It is filed as biochemical. The following applies: Assay Method C (Test Example 3), human autotaxin, 18:0 Lyso PC substrate; read-out: Inhibitory Activity (autotaxin enzyme inhibitory activity, IC50 class). As for the experimental part:
(Method C) Evaluation of Autotaxin Inhibitor
Solution B containing 100 mM Tris-HCl buffer (pH7.5), 150 mM NaCl, 5 mM MgCl2 and 0.05% Triton X-100 was prepared. Human autotaxin enzyme (purchased from R&D System) was diluted with Solution B, and 2.5 μL of which was added to a solution of test compound in DMSO. Furthermore, 2.5 μl of 200 μM 18:0 Lyso PC (purchased from Avanti Polar Lipids) in Solution B was added and allowed to react at room temperature for 2 hours. After completion of the reaction, 15 μL of the coline assay reagent (100 mM Tris-HCl buffer (pH7.5), 5 mM MgCl2, 77 μg/mL choline oxidase, 10 μg/mL peroxidase, 25 μM 10-acetyl-3,7-dihydroxyphenoxazine and excess autotaxin inhibitor) was added and allowed to react at room temperature for 20 minutes. The fluorescent dye Resorufin, which was produced by the reaction, was detected. The fluorescence was detected using ViewLux (PerkinElmer, Inc.) with an excitation wavelength of 531 nm and a fluorescence wavelength of 598 nm.
The percent inhibition of the test compound was calculated by assuming the sample with no test compound as 0% inhibition and the sample with no enzyme as 100% inhibition, and the percent inhibitions at different concentrations of the test compound were plotted to obtain a concentration-dependent curve.
As usually defined, the IC50 is the concentration that inhibits the measured activity by half. As to `CCCCCn1c(-c2ccc(S(=O)(=O)N3CCOCC3)cc2)cc(=O)n2cc(-c3ccc(Cl)cc3)nc12` [Compound 430], the IC50 is 10 to 100 nM.
Next, `CCCCCn1c(-c2ccc(S(=O)(=O)NC)cc2)cc(=O)n2cc(-c3ccc(Cl)cc3)nc12` [Compound 431]: 10 to 100 nM; `CCCCCn1c(-c2ccc(SC)cc2)cc(=O)n2cc(-c3ccc(Cl)cc3)nc12` [Compound 432]: 100 to 1000 nM.
For `CCCCCn1c(-c2ccc(S(C)(=O)=O)cc2)cc(=O)n2cc(-c3ccc(Cl)cc3)nc12` [Compound 433] the value was 10 to 100 nM; for `CCCCCn1c(-c2ccc(NC(C)=O)cc2)cc(=O)n2cc(-c3ccc(Cl)cc3)nc12` [Compound 434], 100 to 1000 nM; for `CCCCCn1c(-c2ccc(CC)cc2)cc(=O)n2cc(-c3ccc(Cl)cc3)nc12` [Compound 435], 100 to 1000 nM.
For the compound `CCCCCn1c(-c2cccc(C(=O)NCCOC)c2)cc(=O)n2cc(-c3ccc(Cl)cc3)nc12` [Compound 436], the IC50 was 10 to 100 nM.
Regarding `CCCCCn1c(-c2ccc(NC(=O)N3CCOCC3)cc2)cc(=O)n2cc(-c3ccc(Cl)cc3)nc12` [Compound 437], the concentration for half-maximal inhibition (IC50) lay within 10 to 100 nM.
Next, `CCCCCn1c(-c2ccc(NS(=O)(=O)N(C)C)cc2)cc(=O)n2cc(-c3ccc(Cl)cc3)nc12` [Compound 438]: 10 to 100 nM; `CCCCCn1c(-c2cccc(C(=O)NCCN(C)C)c2)cc(=O)n2cc(-c3ccc(Cl)cc3)nc12` [Compound 439]: 10 to 100 nM.
Next, `CCCCCn1c(-c2ccccc2NS(C)(=O)=O)cc(=O)n2cc(-c3ccc(Cl)cc3)nc12` [Compound 440]: 100 to 1000 nM; `CCCCCn1c(-c2cccc(NS(C)(=O)=O)c2)cc(=O)n2cc(-c3ccc(Cl)cc3)nc12` [Compound 441]: 100 to 1000 nM.
On to `CCCCCn1c(-c2ccc(CCCC)cc2)cc(=O)n2cc(-c3ccc(Cl)cc3)nc12` [Compound 442], for which the half-maximal inhibitory concentration (IC50) is more than 1000 nM.
Take `CCCCCn1c(-c2ccccc2F)cc(=O)n2cc(-c3ccc(Cl)cc3)nc12` [Compound 443]: the 50% inhibitory concentration (IC50) lay within 100 to 1000 nM.
For `CCCCCn1c(-c2cccc(F)c2)cc(=O)n2cc(-c3ccc(Cl)cc3)nc12` [Compound 444], the 50% inhibitory concentration (IC50) lay in the range of 100 to 1000 nM.
For `CCCCCn1c(-c2cccc(N3CCOCC3)c2)cc(=O)n2cc(-c3ccc(Cl)cc3)nc12` [Compound 445] the value was 100 to 1000 nM; for `CCCCCn1c(-c2ccc(CCCO)cc2)cc(=O)n2cc(-c3ccc(Cl)cc3)nc12` [Compound 446], 100 to 1000 nM; for `CCCCCn1c(-c2cccc(C(C)=O)c2)cc(=O)n2cc(-c3ccc(Cl)cc3)nc12` [Compound 447], 10 to 100 nM.
`CCCCCn1c(-c2ccc3[nH]c(=O)[nH]c3c2)cc(=O)n2cc(-c3ccc(Cl)cc3)nc12` [Compound 448]: the IC50 fell in the range of 10 to 100 nM.
On to `CCCCCn1c(-c2ccc(N3C[C@@H](CNC(C)=O)OC3=O)cc2F)cc(=O)n2cc(-c3ccc(Cl)cc3)nc12` [Compound 449], for which the IC50 lay within 10 to 100 nM.
Turning to `CCCCCn1c(-c2ccc3ncsc3c2)cc(=O)n2cc(-c3ccc(Cl)cc3)nc12` [Compound 450], the concentration for half-maximal inhibition (IC50) lay within 10 to 100 nM.
Next, `CCCCCn1c(-c2ccc(OCCO)c(S(N)(=O)=O)c2)cc(=O)n2cc(-c3ccc(Cl)cc3)nc12` [Compound 451]: 10 to 100 nM; `CCCCCn1c(-c2cccc(S(=O)(=O)N3CCOCC3)c2)cc(=O)n2cc(-c3ccc(Cl)cc3)nc12` [Compound 452]: 10 to 100 nM; `CCCCCn1c(-c2ccc(C(=O)OCC)cc2)cc(=O)n2cc(-c3ccc(Cl)cc3)nc12` [Compound 453]: 100 to 1000 nM.
With `CCCCCn1c(-c2cnc(OC)nc2OC)cc(=O)n2cc(-c3ccc(Cl)cc3)nc12` [Compound 454], the half-maximal inhibitory concentration (IC50) lay in the range of 10 to 100 nM.
Regarding `CCCCCn1c(-c2cnccc2OC)cc(=O)n2cc(-c3ccc(Cl)cc3)nc12` [Compound 455], the half-maximal inhibitory concentration (IC50) fell in the range of 100 to 1000 nM.
Turning to `CCCCCn1c(-c2ccc(OC)nc2)cc(=O)n2cc(-c3ccc(Cl)cc3)nc12` [Compound 456], the IC50 was in the range of 10 to 100 nM.
Take `CCCCCn1c(-c2ccc(F)nc2)cc(=O)n2cc(-c3ccc(Cl)cc3)nc12` [Compound 457]: the IC50 was in the range of 10 to 100 nM.
`CCCCCn1c(-c2cnc(OC)c(Cl)c2)cc(=O)n2cc(-c3ccc(Cl)cc3)nc12` [Compound 458]: the IC50 lay within 100 to 1000 nM.
As to `CCCCCn1c(-c2cnc(N)nc2)cc(=O)n2cc(-c3ccc(Cl)cc3)nc12` [Compound 459], the half-maximal inhibitory concentration (IC50) was in the range of 10 to 100 nM.
Regarding `CCCCCn1c(-c2ccnc(OC)c2)cc(=O)n2cc(-c3ccc(Cl)cc3)nc12` [Compound 460], the concentration for half-maximal inhibition (IC50) was in the range of 100 to 1000 nM.
As for `CCCCCn1c(-c2cncc(OC)c2)cc(=O)n2cc(-c3ccc(Cl)cc3)nc12` [Compound 461], the half-inhibitory concentration (IC50) lay within 10 to 100 nM.
For `CCCCCn1c(-c2ccc(C#N)nc2)cc(=O)n2cc(-c3ccc(Cl)cc3)nc12` [Compound 462], the IC50 lay in the range of 10 to 100 nM.
With `CCCCCn1c(-c2cnc(O)nc2)cc(=O)n2cc(-c3ccc(Cl)cc3)nc12` [Compound 463], the concentration for half-maximal inhibition (IC50) lay within 10 to 100 nM.
On to `CCCCCn1c(-c2ccc(C(=O)NCCC#N)cc2)cc(=O)n2cc(-c3ccc(Cl)cc3)nc12` [Compound 465], for which the IC50 was in the range of 10 to 100 nM.
For `CCCCCn1c(-c2ccc(C(=O)Nc3ccncc3)cc2)cc(=O)n2cc(-c3ccc(Cl)cc3)nc12` [Compound 466], the half-inhibitory concentration (IC50) fell in the range of 10 to 100 nM.
`CCCCCn1c(-c2ccc(C(=O)N(CCO)CCO)cc2)cc(=O)n2cc(-c3ccc(Cl)cc3)nc12` [Compound 467]: the IC50 was 10 to 100 nM.
Consider `CCCCCn1c(-c2ccc(C(=O)NC(C)(C)C)cc2)cc(=O)n2cc(-c3ccc(Cl)cc3)nc12` [Compound 468], for which the IC50 was 100 to 1000 nM.
Turning to `CCCCCn1c(-c2ccc(C(=O)Nc3ccccc3)cc2)cc(=O)n2cc(-c3ccc(Cl)cc3)nc12` [Compound 469], the IC50 fell in the range of 10 to 100 nM.
For `CCCCCn1c(-c2ccc(C(=O)NCCNC(C)=O)cc2)cc(=O)n2cc(-c3ccc(Cl)cc3)nc12` [Compound 470] the value was 10 to 100 nM; for `CCCCCn1c(-c2ccc(C(=O)Nc3ccc(OC)cc3)cc2)cc(=O)n2cc(-c3ccc(Cl)cc3)nc12` [Compound 471], 100 to 1000 nM.
`CCCCCn1c(-c2ccc(C(=O)N3CCC(O)CC3)cc2)cc(=O)n2cc(-c3ccc(Cl)cc3)nc12` [Compound 472]: the half-inhibitory concentration (IC50) lay within 10 to 100 nM.
On to `CCCCCn1c(-c2ccc(C(=O)N3CCOCC3)cc2)cc(=O)n2cc(-c3ccc(Cl)cc3)nc12` [Compound 473], for which the half-inhibitory concentration (IC50) lay within 10 to 100 nM.
Turning to `CCCCCn1c(-c2ccc(C(=O)N3CCN(C(C)=O)CC3)cc2)cc(=O)n2cc(-c3ccc(Cl)cc3)nc12` [Compound 474], the IC50 lay in the range of 10 to 100 nM.
Next, `CCCCCn1c(-c2ccc(C(=O)NCCF)cc2)cc(=O)n2cc(-c3ccc(Cl)cc3)nc12` [Compound 475]: 10 to 100 nM; `CCCCCn1c(-c2ccc(C(=O)N(C)CCO)cc2)cc(=O)n2cc(-c3ccc(Cl)cc3)nc12` [Compound 476]: 10 to 100 nM; `CCCCCn1c(-c2ccc(C(=O)NC(C)(C)CO)cc2)cc(=O)n2cc(-c3ccc(Cl)cc3)nc12` [Compound 477]: 10 to 100 nM.
Take `CCCCCn1c(-c2ccc(C(=O)NCCC)cc2)cc(=O)n2cc(-c3ccc(Cl)cc3)nc12` [Compound 478]: the IC50 lay within 10 to 100 nM.
Consider `CCCCCn1c(-c2ccc(C(=O)NCCCOC)cc2)cc(=O)n2cc(-c3ccc(Cl)cc3)nc12` [Compound 479], for which the half-maximal inhibitory concentration (IC50) is 10 to 100 nM.
For `CCCCCn1c(-c2ccc(C(=O)NCCOCCO)cc2)cc(=O)n2cc(-c3ccc(Cl)cc3)nc12` [Compound 480] the value was 10 to 100 nM; for `CCCCCn1c(-c2ccc(C(=O)NCCCO)cc2)cc(=O)n2cc(-c3ccc(Cl)cc3)nc12` [Compound 481], 10 to 100 nM.
Take `CCCCCn1c(-c2ccc(C(=O)NC(CO)CO)cc2)cc(=O)n2cc(-c3ccc(Cl)cc3)nc12` [Compound 482]: the half-maximal inhibitory concentration (IC50) is less than 10 nM.
For the compound `CCCCCn1c(-c2ccc(C(=O)NCC3CC3)cc2)cc(=O)n2cc(-c3ccc(Cl)cc3)nc12` [Compound 483], the IC50 was in the range of 10 to 100 nM.
Turning to `C#CCNC(=O)c1ccc(-c2cc(=O)n3cc(-c4ccc(Cl)cc4)nc3n2CCCCC)cc1` [Compound 484], the IC50 is 10 to 100 nM.
Turning to `CCCCCn1c(-c2ccc(C(=O)N3CCN(CCOC)CC3)cc2)cc(=O)n2cc(-c3ccc(Cl)cc3)nc12` [Compound 485], the 50% inhibitory concentration (IC50) lay in the range of 10 to 100 nM.
In the case of `CCCCCn1c(-c2ccc(C(=O)NC[C@H](O)CO)cc2)cc(=O)n2cc(-c3ccc(Cl)cc3)nc12` [Compound 486], the IC50 is less than 10 nM.
Take `CCCCCn1c(-c2ccc(C(=O)NCC(O)CO)cc2)cc(=O)n2cc(-c3ccc(Cl)cc3)nc12` (stereo not shown) [Compound 487]: the IC50 is less than 10 nM.
Consider `CCCCCn1c(-c2ccc(C(=O)Nc3ncco3)cc2)cc(=O)n2cc(-c3ccc(Cl)cc3)nc12` [Compound 488], for which the 50% inhibitory concentration (IC50) is 10 to 100 nM.
For the compound `CCCCCn1c(-c2ccc(C(=O)NC3CN(C)C3)cc2)cc(=O)n2cc(-c3ccc(Cl)cc3)nc12` [Compound 489], the IC50 lay within 10 to 100 nM.
For `CCCCCn1c(-c2ccc(C(=O)NC3COC3)cc2)cc(=O)n2cc(-c3ccc(Cl)cc3)nc12` [Compound 490] the value was less than 10 nM; for `CCCCCn1c(-c2ccc(C(=O)N3CCC4(CN(C(=O)OC(C)(C)C)C4)C3)cc2)cc(=O)n2cc(-c3ccc(Cl)cc3)nc12` [Compound 491], 100 to 1000 nM.

The record behind these values is patent US20160002247A1, “8-SUBSTITUTED IMIDAZOPYRIMIDINONE DERIVATIVE HAVING AUTOTAXIN INHIBITORY ACTIVITY” (THE UNIVERSITY OF TOKYO, priority 2013, published 2016).
